Source: patent US9480679B2, “Methods for treating malaria, tuberculosis and MAC diseases” (priority 2009, dated 2016)
Values after ≈ are worked out from the molar mass of the structure shown.

Tests used:
[1] = tested on: P. falciparum NF54; experiment: In vitro P. falciparum 72 hour assay (48+24); type: cell-based; details: Plasmodium falciparum, NF54
Method: EXAMPLE. In vitro and in vivo activity against different species of Plasmodium parasites. CEM-101 was tested against intra-erythrocytic forms of P. falciparum derived from asynchronous cultures of the strain […]. […] CEM-101 was followed for 120 h. CEM-101 has delayed activity when compared to other agents.
In vitro P. falciparum data for CEM-101 in the 72 h Assay (48+24)

[2] = tested on: P. falciparum NF54; experiment: In vitro P. falciparum 120 hour assay (96+24); type: cell-based; details: Plasmodium falciparum, NF54
Method: EXAMPLE. In vitro and in vivo activity against different species of Plasmodium parasites. CEM-101 was tested against intra-erythrocytic forms of P. falciparum derived from asynchronous cultures of the strain […]. Parasite growth over 120 h was measured by the incorporation of radiolabelled [^3H]hypoxanthine (in hypoxanthine free culture medium) added after 96 h of drug incubation and 24 h prior to the termination of the test. CEM-101 was followed for 120 h. CEM-101 has delayed activity when compared to other agents.
In vitro P. falciparum data for CEM-101 in the 120 h Assay (96+24)

In the case of `CC[C@H]1OC(=O)[C@@](C)(F)C(=O)[C@H](C)[C@@H](O[C@@H]2O[C@H](C)C[C@H](N(C)C)[C@H]2O)[C@](C)(OC)C[C@@H](C)C(=O)[C@H](C)[C@H]2N(CCCCn3cc(-c4cccc(N)c4)nn3)C(=O)O[C@]12C` [CEM-101, solithromycin], the IC50 ([1]; 72 h assay (48+24), read-out: IC50 NF54 TEST 1) is reported as 0.919 µg/mL (≈ 1.09 µM), the IC50 ([1]; 72 h assay (48+24), read-out: IC50 NF54 TEST 2) is reported as 1.54 µg/mL (≈ 1.82 µM) and the IC50 ([1]; 72 h assay (48+24), read-out: IC50 NF54 TEST 3) is reported as 1.49 µg/mL (≈ 1.76 µM). The IC50 ([1]; 72 h assay (48+24), read-out: IC50 NF54 TEST 4) was 1.26 µg/mL (≈ 1.49 µM), the IC50 ([1]; 72 hour assay (48+24), read-out: IC50 NF54 Test 1) was 0.919 µg/mL (≈ 1.09 µM) and the IC50 ([1]; 72 hour assay (48+24), read-out: IC50 NF54 Test 2) was 1.54 µg/mL (≈ 1.82 µM). The IC50 ([1]; 72 hour assay (48+24), read-out: IC50 NF54 Test 3) was 1.49 µg/mL (≈ 1.76 µM), the IC50 ([1]; 72 hour assay (48+24), read-out: IC50 NF54 Test 4) was 1.26 µg/mL (≈ 1.49 µM) and the IC50 ([2]; 120 h assay (96+24), read-out: IC50 NF54) was 0.0024 µg/mL (≈ 0.00284 µM). For the same compound, the IC50 ([2]; 120 hour assay (96+24), read-out: IC50 NF54 Test 1) was less than 0.156 µg/mL, the IC50 ([2]; 120 hour assay (96+24), read-out: IC50 NF54 Test 2) was less than 0.015 µg/mL and the IC50 ([2]; 120 hour assay (96+24), read-out: IC50 NF54 Test 3) was 0.0024 µg/mL (≈ 0.00284 µM).
